In PubChem BioAssay (NCI):
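Tested at 5 concentrations; 48 h exposure; 96-well plates; endpoints linearly interpolated, else capped at highest concentration. Definition used: TGI = concentration required for complete inhibition of growth.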

Tests used:
Test in all cases: growth of human tumour cells (NCI), 48 h
XF 498 CNS = system: XF 498 CNS
SK-MEL-5 melanoma = system: SK-MEL-5 melanoma
SK-MEL-28 melanoma = system: SK-MEL-28 melanoma
MCF7 breast = system: MCF7 breast
MDA-N = system: MDA-N
MALME-3M melanoma = system: MALME-3M melanoma
LXFL 529 NSCLC = system: LXFL 529 NSCLC
KM12 colon = system: KM12 colon
PC-3 prostate = system: PC-3 prostate
SK-MEL-2 melanoma = system: SK-MEL-2 melanoma
COLO 205 colon = system: COLO 205 colon
SW-620 colon = system: SW-620 colon
DMS 114 small cell lung = system: DMS 114 small cell lung
SR leukemia = system: SR leukemia
DMS 273 small cell lung = system: DMS 273 small cell lung
CAKI-1 renal = system: CAKI-1 renal
SN12C renal = system: SN12C renal
HCT-15 colon = system: HCT-15 colon
MDA-MB-435 = system: MDA-MB-435
A498 renal = system: A498 renal
KM20L2 colon = system: KM20L2 colon
A549 NSCLC = system: A549 NSCLC
MDA-MB-231 breast = system: MDA-MB-231 breast
NCI/ADR-RES ovarian = system: NCI/ADR-RES ovarian
HCC-2998 colon = system: HCC-2998 colon
786-0 renal = system: 786-0 renal
M19-MEL melanoma = system: M19-MEL melanoma
M14 melanoma = system: M14 melanoma
ACHN renal = system: ACHN renal
SNB-75 CNS = system: SNB-75 CNS
HOP-62 NSCLC = system: HOP-62 NSCLC
UO-31 renal = system: UO-31 renal
HCT-116 colon = system: HCT-116 colon
NCI-H522 lung = system: NCI-H522 lung
RPMI-8226 leukemia = system: RPMI-8226 leukemia
LOX IMVI melanoma = system: LOX IMVI melanoma
HOP-92 NSCLC = system: HOP-92 NSCLC
SK-OV-3 ovarian = system: SK-OV-3 ovarian
OVCAR-3 ovarian = system: OVCAR-3 ovarian
SNB-19 CNS = system: SNB-19 CNS
DU-145 prostate = system: DU-145 prostate
RXF 393 renal = system: RXF 393 renal
IGROV1 ovarian = system: IGROV1 ovarian
NCI-H460 lung = system: NCI-H460 lung
BT-549 breast = system: BT-549 breast
OVCAR-4 ovarian = system: OVCAR-4 ovarian
U251 CNS = system: U251 CNS
HT29 colon = system: HT29 colon
HOP-18 NSCLC = system: HOP-18 NSCLC
RXF-631 renal = system: RXF-631 renal
SF-539 CNS = system: SF-539 CNS
SF-295 CNS = system: SF-295 CNS
TK-10 renal = system: TK-10 renal
OVCAR-8 ovarian = system: OVCAR-8 ovarian
UACC-257 melanoma = system: UACC-257 melanoma
CCRF-CEM leukemia = system: CCRF-CEM leukemia
UACC-62 melanoma = system: UACC-62 melanoma
NCI-H226 lung = system: NCI-H226 lung
SNB-78 CNS = system: SNB-78 CNS
DLD-1 colon = system: DLD-1 colon
EKVX NSCLC = system: EKVX NSCLC
HL-60(TB) leukemia = system: HL-60(TB) leukemia
NCI-H23 lung = system: NCI-H23 lung
MOLT-4 leukemia = system: MOLT-4 leukemia
OVCAR-5 ovarian = system: OVCAR-5 ovarian
T-47D breast = system: T-47D breast
SF-268 CNS = system: SF-268 CNS
HS 578T breast = system: HS 578T breast
K-562 leukemia = system: K-562 leukemia

O=C(CC1(O)C(=O)Nc2c(Cl)ccc(Cl)c21)c1ccco1 (configuration not stated)
TGI (XF 498 CNS): 24.2 µM
TGI (SK-MEL-5 melanoma): 31.7 µM
TGI (SK-MEL-28 melanoma): 38.2 µM
TGI (MCF7 breast): 39.5 µM
TGI (MDA-N): 12.8 µM
TGI (MALME-3M melanoma): 34.7 µM
TGI (LXFL 529 NSCLC): 27.4 µM
TGI (KM12 colon): > 78.3 µM
TGI (PC-3 prostate): > 100 µM
TGI (SK-MEL-2 melanoma): > 69.2 µM
TGI (COLO 205 colon): 33 µM
TGI (SW-620 colon): 56.4 µM
TGI (DMS 114 small cell lung): 33.5 µM
TGI (SR leukemia): 14.8 µM
TGI (DMS 273 small cell lung): > 100 µM
TGI (CAKI-1 renal): > 72.3 µM
TGI (SN12C renal): 31.8 µM
TGI (HCT-15 colon): > 70.2 µM
TGI (MDA-MB-435): 3.44 µM
TGI (A498 renal): 64 µM
TGI (KM20L2 colon): > 100 µM
TGI (A549 NSCLC): 49.9 µM
TGI (MDA-MB-231 breast): 48.7 µM
TGI (NCI/ADR-RES ovarian): 74.1 µM
TGI (HCC-2998 colon): > 88.5 µM
TGI (786-0 renal): 46.8 µM
TGI (M19-MEL melanoma): 5.33 µM
TGI (M14 melanoma): 27.8 µM
TGI (ACHN renal): 38.6 µM
TGI (SNB-75 CNS): 71.7 µM
TGI (HOP-62 NSCLC): 66.2 µM
TGI (UO-31 renal): 54.9 µM
TGI (HCT-116 colon): 32.4 µM
TGI (NCI-H522 lung): > 100 µM
TGI (RPMI-8226 leukemia): 40.8 µM
TGI (LOX IMVI melanoma): 29.4 µM
TGI (HOP-92 NSCLC): 49.8 µM
TGI (SK-OV-3 ovarian): > 74.3 µM
TGI (OVCAR-3 ovarian): 18.7 µM
TGI (SNB-19 CNS): > 100 µM
TGI (DU-145 prostate): > 100 µM
TGI (RXF 393 renal): 43.2 µM
TGI (IGROV1 ovarian): 40 µM
TGI (NCI-H460 lung): 45.6 µM
TGI (BT-549 breast): > 100 µM
TGI (OVCAR-4 ovarian): 24.5 µM
TGI (U251 CNS): > 74.4 µM
TGI (HT29 colon): > 93.4 µM
TGI (HOP-18 NSCLC): > 100 µM
TGI (RXF-631 renal): 65.3 µM
TGI (SF-539 CNS): 59.7 µM
TGI (SF-295 CNS): 40.9 µM
TGI (TK-10 renal): > 81.6 µM
TGI (OVCAR-8 ovarian): > 73.8 µM
TGI (UACC-257 melanoma): 40.1 µM
TGI (CCRF-CEM leukemia): 26.9 µM
TGI (UACC-62 melanoma): 19.3 µM
TGI (NCI-H226 lung): 47.5 µM
TGI (SNB-78 CNS): > 100 µM
TGI (DLD-1 colon): > 100 µM
TGI (EKVX NSCLC): 50.5 µM
TGI (HL-60(TB) leukemia): 35.1 µM
TGI (NCI-H23 lung): 34 µM
TGI (MOLT-4 leukemia): 61 µM
TGI (OVCAR-5 ovarian): 38.7 µM
TGI (T-47D breast): 72.9 µM
TGI (SF-268 CNS): > 84.2 µM
TGI (HS 578T breast): 71.5 µM

CCN(CC)CCNc1ccc2nnn3c4ccc([N+](=O)[O-])cc4c(=O)c1c23
TGI (XF 498 CNS): 18.3 µM
TGI (SK-MEL-5 melanoma): 58.7 µM
TGI (SK-MEL-28 melanoma): 51.1 µM
TGI (MCF7 breast): > 100 µM
TGI (MDA-N): > 100 µM
TGI (MALME-3M melanoma): 62.9 µM
TGI (LXFL 529 NSCLC): > 96.1 µM
TGI (KM12 colon): > 100 µM
TGI (PC-3 prostate): > 100 µM
TGI (SK-MEL-2 melanoma): > 71.7 µM
TGI (COLO 205 colon): > 100 µM
TGI (SW-620 colon): 27.6 µM
TGI (DMS 114 small cell lung): 97.3 µM
TGI (SR leukemia): > 33.6 µM
TGI (DMS 273 small cell lung): 23.5 µM
TGI (CAKI-1 renal): 27.3 µM
TGI (SN12C renal): > 83.6 µM
TGI (HCT-15 colon): > 61 µM
TGI (MDA-MB-435): > 100 µM
TGI (A498 renal): 23.8 µM
TGI (KM20L2 colon): > 100 µM
TGI (A549 NSCLC): > 53.2 µM
TGI (MDA-MB-231 breast): 24.4 µM
TGI (NCI/ADR-RES ovarian): 30.7 µM
TGI (K-562 leukemia): 32.8 µM
TGI (HCC-2998 colon): > 100 µM
TGI (786-0 renal): 18.5 µM
TGI (M19-MEL melanoma): > 100 µM
TGI (M14 melanoma): 49.7 µM
TGI (ACHN renal): 55.9 µM
TGI (SNB-75 CNS): 42 µM
TGI (HOP-62 NSCLC): > 71.3 µM
TGI (UO-31 renal): 25 µM
TGI (HCT-116 colon): 19.7 µM
TGI (NCI-H522 lung): > 100 µM
TGI (RPMI-8226 leukemia): 43.1 µM
TGI (LOX IMVI melanoma): 17.9 µM
TGI (HOP-92 NSCLC): 40.6 µM
TGI (SK-OV-3 ovarian): > 100 µM
TGI (OVCAR-3 ovarian): > 100 µM
TGI (SNB-19 CNS): > 100 µM
TGI (DU-145 prostate): > 100 µM
TGI (RXF 393 renal): 18.9 µM
TGI (IGROV1 ovarian): > 100 µM
TGI (NCI-H460 lung): > 26.9 µM
TGI (BT-549 breast): > 100 µM
TGI (OVCAR-4 ovarian): 48.9 µM
TGI (U251 CNS): 13 µM
TGI (HT29 colon): > 55.5 µM
TGI (HOP-18 NSCLC): > 100 µM
TGI (RXF-631 renal): 28.2 µM
TGI (SF-539 CNS): 14.9 µM
TGI (SF-295 CNS): > 78.4 µM
TGI (TK-10 renal): > 45 µM
TGI (OVCAR-8 ovarian): 16 µM
TGI (UACC-257 melanoma): > 69.4 µM
TGI (CCRF-CEM leukemia): 44.3 µM
TGI (UACC-62 melanoma): > 100 µM
TGI (NCI-H226 lung): 17 µM
TGI (SNB-78 CNS): 63.8 µM
TGI (DLD-1 colon): > 70.1 µM
TGI (EKVX NSCLC): > 89.7 µM
TGI (HL-60(TB) leukemia): 30.2 µM
TGI (NCI-H23 lung): 98.5 µM
TGI (MOLT-4 leukemia): 32 µM
TGI (OVCAR-5 ovarian): 65.1 µM
TGI (T-47D breast): > 100 µM
TGI (SF-268 CNS): > 100 µM
TGI (HS 578T breast): 73.8 µM
